Measurements as given in patent US8859584B2, “TRPV1 antagonists” (AbbVie Inc., priority 2011, dated 2014).

Key:
human TRPV1 [1] = target: T1, human TRPV1 (Homo sapiens, UniProt Q8NER1); test: Capsaicin Activation Assay (FLIPR intracellular Ca2+, recombinant HEK293 cells); type: cell-based; settings: recombinant HEK293 cells expressing hTRPV1; 50 nM capsaicin; read-out: human TRPV1 capsaicin IC50
T1 construct: expressed in transfected cells

human TRPV1 [2] = target: T1, human TRPV1; test: Acid Activation Assay (pH 5.0, FLIPR intracellular Ca2+, recombinant HEK293 cells); type: cell-based; settings: percentage of maximal pH 5.0-induced response remaining; HEK293 hTRPV1; max concentration 37.5 μM
Procedure, shortened: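 HEK293 cells stably expressing recombinant hTRPV1 were loaded with calcium dye for 90-120 min at 25° C and pre-treated with compound for 3 min before a pH 5.0 (DPBS/MES) challenge. Peak FLIPR fluorescence over baseline is given as percentage of the maximal pH 5.0-induced response.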

T1 sequence (Q8NER1 whole entry): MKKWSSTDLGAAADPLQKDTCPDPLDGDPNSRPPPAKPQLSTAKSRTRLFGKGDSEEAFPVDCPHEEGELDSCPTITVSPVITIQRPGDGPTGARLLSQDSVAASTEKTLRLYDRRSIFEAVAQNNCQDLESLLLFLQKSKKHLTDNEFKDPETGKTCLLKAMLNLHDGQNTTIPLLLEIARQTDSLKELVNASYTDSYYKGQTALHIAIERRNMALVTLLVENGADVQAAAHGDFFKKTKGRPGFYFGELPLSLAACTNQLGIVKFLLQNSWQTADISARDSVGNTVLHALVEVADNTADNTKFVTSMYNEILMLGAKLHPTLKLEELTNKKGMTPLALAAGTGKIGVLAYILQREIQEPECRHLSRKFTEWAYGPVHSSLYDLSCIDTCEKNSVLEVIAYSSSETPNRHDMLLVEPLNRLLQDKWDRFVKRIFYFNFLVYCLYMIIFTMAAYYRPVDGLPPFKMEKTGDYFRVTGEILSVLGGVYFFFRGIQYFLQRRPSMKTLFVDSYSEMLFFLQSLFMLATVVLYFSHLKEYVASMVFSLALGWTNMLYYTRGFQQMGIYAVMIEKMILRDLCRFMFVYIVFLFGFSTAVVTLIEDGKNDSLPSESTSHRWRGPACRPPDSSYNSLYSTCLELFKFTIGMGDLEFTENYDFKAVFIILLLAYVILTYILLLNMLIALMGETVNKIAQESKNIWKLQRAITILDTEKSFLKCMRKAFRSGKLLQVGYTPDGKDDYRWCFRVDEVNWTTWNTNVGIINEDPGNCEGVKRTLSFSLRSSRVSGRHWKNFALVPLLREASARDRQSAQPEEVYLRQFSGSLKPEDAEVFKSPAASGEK

Compound | IC50 (human TRPV1 [1]) [nM] | human TRPV1 H+ (max % remain) (human TRPV1 [2]) [%]
CC1(C)C[C@@H](NC(=O)Nc2ccc(F)c3c2C[C@@H](O)C3)c2cccc(F)c2O1 [Example 157, 1-[(4R)-8-fluoro-2,2-dimethyl-3,4-dihydro-2H-chromen-4-yl]-3-[(2R)-7-fluoro-2-hydroxy-2,3-dihydro-1H-inden-4-yl]urea] | 1800 | 59
O=C(Nc1cccc2c1CC(O)C2)NC1CC(c2cccc(Cl)c2)Oc2ccccc21 (stereo not drawn) [Example 110, 1-[2-(3-chlorophenyl)-3,4-dihydro-2H-chromen-4-yl]-3-(2-hydroxy-2,3-dihydro-1H-inden-4-yl)urea] | 240 | 59
C[C@]1(CF)C[C@@H](NC(=O)Nc2c(F)ccc3c2C[C@@H](O)C3)c2ccc(Cl)cc2O1 [Example 100, 1-[(2R,4R)-7-chloro-2-(fluoromethyl)-2-methyl-3,4-dihydro-2H-chromen-4-yl]-3-[(2S)-5-fluoro-2-hydroxy-2,3-dihydro-1H-inden-4-yl]urea] | 33 | 30
O=C(Nc1cccc2c1C[C@H](O)C2)N[C@@H]1CC(CF)(CF)Oc2c(F)cc(F)cc21 [Example 1, 1-[(4R)-6,8-difluoro-2,2-bis(fluoromethyl)-3,4-dihydro-2H-chromen-4-yl]-3-[(2R)-2-hydroxy-2,3-dihydro-1H-inden-4-yl]urea] | 300 | 61
C[C@@]1(C(F)F)C[C@@H](NC(=O)Nc2cccc3c2C[C@H](O)C3)c2ccc(Cl)cc2O1 [Example 20, 1-[(2S,4R)-7-chloro-2-(difluoromethyl)-2-methyl-3,4-dihydro-2H-chromen-4-yl]-3-[(2R)-2-hydroxy-2,3-dihydro-1H-inden-4-yl]urea] | 36 | 64
CC1(C)C[C@@H](NC(=O)Nc2cccc3c2C[C@H](O)C3)c2cccc(OC(F)(F)F)c2O1 [Example 19, 1-[(4R)-2,2-dimethyl-8-(trifluoromethoxy)-3,4-dihydro-2H-chromen-4-yl]-3-[(2R)-2-hydroxy-2,3-dihydro-1H-inden-4-yl]urea] | 14 | 71
CC1(C)C[C@@H](NC(=O)Nc2ccc(F)c3c2C[C@@H](O)C3)c2cccc(C(F)(F)F)c2O1 [Example 156, 1-[(4R)-2,2-dimethyl-8-(trifluoromethyl)-3,4-dihydro-2H-chromen-4-yl]-3-[(2R)-7-fluoro-2-hydroxy-2,3-dihydro-1H-inden-4-yl]urea] | 61 | 40
O=C(Nc1cccc2c1C[C@@H](O)C2)N[C@H]1CCOc2cc(OC(F)(F)F)ccc21 [Example 94, 1-[(2S)-2-hydroxy-2,3-dihydro-1H-inden-4-yl]-3-[(4S)-7-(trifluoromethoxy)-3,4-dihydro-2H-chromen-4-yl]urea] | 5900 | 47
O=C(Nc1ccc(F)c2c1C[C@H](O)C2)N[C@@H]1CC(CF)(CF)Oc2c(F)cccc21 [Example 152, 1-[(4R)-8-fluoro-2,2-bis(fluoromethyl)-3,4-dihydro-2H-chromen-4-yl]-3-[(2S)-7-fluoro-2-hydroxy-2,3-dihydro-1H-inden-4-yl]urea] | 5500 | 3
Cc1c(F)ccc2c1OC(C)(C)C[C@H]2NC(=O)Nc1cccc2c1C[C@H](O)C2 [Example 62, 1-[(4R)-7-fluoro-2,2,8-trimethyl-3,4-dihydro-2H-chromen-4-yl]-3-[(2R)-2-hydroxy-2,3-dihydro-1H-inden-4-yl]urea] | 20 | 86
O=C(Nc1cccc2c1C[C@@H](O)C2)N[C@@H]1CC(CF)(CF)Oc2cc(OC(F)(F)F)ccc21 [Example 76, 1-[(4R)-2,2-bis(fluoromethyl)-7-(trifluoromethoxy)-3,4-dihydro-2H-chromen-4-yl]-3-[(2S)-2-hydroxy-2,3-dihydro-1H-inden-4-yl]urea] | 32 | 1
O=C(Nc1cccc2c1C[C@H](O)C2)N[C@@H]1CC(CF)(CF)Oc2c1ccc(Cl)c2F [Example 11, 1-[(4R)-7-chloro-8-fluoro-2,2-bis(fluoromethyl)-3,4-dihydro-2H-chromen-4-yl]-3-[(2R)-2-hydroxy-2,3-dihydro-1H-inden-4-yl]urea] | 56 | 64
1-(5-chloro-2,3-dihydro-1H-inden-1-yl)-3-(7-fluoro-2-hydroxy-2,3-dihydro-1H-inden-4-yl)urea [Example 174] | 420 | 29
O=C(Nc1cccc2c1C[C@@H](O)C2)N[C@@H]1CCOc2c(OC(F)(F)F)cccc21 [Example 73, 1-[(2S)-2-hydroxy-2,3-dihydro-1H-inden-4-yl]-3-[(4R)-8-(trifluoromethoxy)-3,4-dihydro-2H-chromen-4-yl]urea] | 25 | 18
CN1CC[C@@H](NC(=O)Nc2cccc3c2C[C@@H](O)C3)c2ccc(C(F)(F)F)cc21 [Example 84, 1-[(2S)-2-hydroxy-2,3-dihydro-1H-inden-4-yl]-3-[(4R)-1-methyl-7-(trifluoromethyl)-1,2,3,4-tetrahydroquinolin-4-yl]urea] | 80 | 13
O=C(Nc1cccc2c1C[C@H](O)C2)N[C@@H]1CCc2cc(OC(F)(F)F)ccc21 [Example 106, 1-[(2R)-2-hydroxy-2,3-dihydro-1H-inden-4-yl]-3-[(1R)-5-(trifluoromethoxy)-2,3-dihydro-1H-inden-1-yl]urea] | 56 | 26
O=C(Nc1cccc2c1CC(O)C2)NC1c2ccccc2OCC1c1ccc(Cl)cc1 (stereo not drawn) [Example 115, 1-[3-(4-chlorophenyl)-3,4-dihydro-2H-chromen-4-yl]-3-(2-hydroxy-2,3-dihydro-1H-inden-4-yl)urea] | 1100 | 94
CC1(CF)C[C@@H](NC(=O)Nc2cccc3c2C[C@H](O)C3)c2ccc(Cl)cc2O1 (stereo partly drawn) [Example 67, 1-[(4R)-7-chloro-2-(fluoromethyl)-2-methyl-3,4-dihydro-2H-chromen-4-yl]-3-[(2R)-2-hydroxy-2,3-dihydro-1H-inden-4-yl]urea] | 17 | 72
CC1(C)C[C@@H](NC(=O)Nc2cccc3c2C[C@@H](O)C3)c2ccc(Cl)cc2O1 [Example 85, 1-[(4R)-7-chloro-2,2-dimethyl-3,4-dihydro-2H-chromen-4-yl]-3-[(2S)-2-hydroxy-2,3-dihydro-1H-inden-4-yl]urea] | 24 | 12
O=C(Nc1cccc2c1C[C@H](O)C2)N[C@@H]1CC(CF)(CF)Oc2cc(C(F)F)ccc21 [Example 130, 1-[(4R)-7-(difluoromethyl)-2,2-bis(fluoromethyl)-3,4-dihydro-2H-chromen-4-yl]-3-[(2R)-2-hydroxy-2,3-dihydro-1H-inden-4-yl]urea] | 34000 | 85
O=C(Nc1cccc2c1C[C@H](O)C2)N[C@@H]1COc2ccc(Cl)cc2C1 [Example 27, 1-[(3S)-6-chloro-3,4-dihydro-2H-chromen-3-yl]-3-[(2R)-2-hydroxy-2,3-dihydro-1H-inden-4-yl]urea] | 97 | 11
